≈ marks a conversion by molar mass, not a printed value.
What was measured:
P. aeruginosa ATCC 27853 = experiment: MIC broth microdilution, APAE001; assay type: cell-based; conditions: Pseudomonas aeruginosa; APAE001 is ATCC27853; Mueller Hinton Broth, 35 C, 20 hours
Method: (§1) Minimum inhibitory concentrations (MIC) were determined by reference Clinical and Laboratory Standards Institute (CLSI) broth microdilution methods per M7-A7 [2006]. Quality control ranges utilizing E. coli ATCC 25922, P. aeruginosa ATCC 27853 and S. aureus ATCC 29213, and interpretive criteria for comparator agents were as published in CLSI M100-S17 [2007]. Briefly, serial two-fold dilutions of the test compounds were prepared at 2× concentration in Mueller Hinton Broth. The compound dilutions were mixed in 96-well assay plates in a 1:1 ratio with bacterial inoculum. The inoculum was prepared by suspension of a colony from an agar plate that was prepared the previous day. Bacteria were suspended in sterile saline and added to each assay plate to obtain a final concentration of 5×10^5 CFU/mL. The plates were incubated at 35 C for 20 hours in ambient air.

E. coli ATCC 25922 = experiment: MIC broth microdilution, AECO001; assay type: cell-based; conditions: Escherichia coli; AECO001 is ATCC25922; Mueller Hinton Broth, 35 C, 20 hours
Method: as §1

In the case of `NC[C@@H](F)[C@H](O)C(=O)N[C@@H]1C[C@H](N)[C@@H](O[C@H]2O[C@H](CNCCO)[C@@H](O)C[C@H]2N)[C@H](O[C@@H]2O[C@H](CO)[C@@H](O[C@H]3O[C@@H](CN)[C@@H](O)[C@H](O)[C@H]3N)[C@H]2O)[C@H]1O` [5/3], the MIC (P. aeruginosa ATCC 27853) is reported as ≤ 1 µg/mL and the MIC (E. coli ATCC 25922) is reported as 1 to 16 µg/mL (≈ 1.31 to 21 µM).

`NC[C@@H](O)[C@H](O)C(=O)N[C@@H]1C[C@H](N)[C@@H](O[C@H]2O[C@H](CNCCO)[C@@H](O)C[C@H]2N)[C@H](O[C@@H]2O[C@H](CO)[C@@H](O[C@H]3O[C@@H](CN)[C@@H](O)[C@H](O)[C@H]3N)[C@H]2O)[C@H]1O` [3/3] was tested, and the MIC (P. aeruginosa ATCC 27853) was ≤ 1 µg/mL and the MIC (E. coli ATCC 25922) was 1 to 16 µg/mL (≈ 1.32 to 21.1 µM).

With `NC[C@@H]1O[C@H](O[C@H]2[C@@H](O)[C@H](O[C@@H]3[C@@H](O)[C@H](NC(=O)[C@@H](O)[C@@H](O)CN)C[C@H](N)[C@H]3O[C@H]3O[C@H](CNCCO)[C@@H](O)C[C@H]3N)O[C@@H]2CO)[C@H](N)[C@@H](O)[C@@H]1O` [4/3] the MIC (P. aeruginosa ATCC 27853) was ≤ 1 µg/mL and the MIC (E. coli ATCC 25922) was 1 to 16 µg/mL (≈ 1.32 to 21.1 µM).

`NC[C@@H]1O[C@H](O[C@H]2[C@@H](O)[C@H](O[C@@H]3[C@@H](O)[C@H](NC(=O)[C@@H](O)C(F)(F)CN)C[C@H](N)[C@H]3O[C@H]3O[C@H](CNCCO)[C@@H](O)C[C@H]3N)O[C@@H]2CO)[C@H](N)[C@@H](O)[C@@H]1O` [6/3] was tested, and the MIC (P. aeruginosa ATCC 27853) was 1 to 16 µg/mL (≈ 1.28 to 20.5 µM) and the MIC (E. coli ATCC 25922) was 1 to 16 µg/mL (≈ 1.28 to 20.5 µM).

`NC[C@@H]1O[C@H](O[C@H]2[C@@H](O)[C@H](O[C@@H]3[C@@H](O)[C@H](NC(=O)C4(O)CNC4)C[C@H](N)[C@H]3O[C@H]3O[C@H](CNCCO)[C@@H](O)C[C@H]3N)O[C@@H]2CO)[C@H](N)[C@@H](O)[C@@H]1O` [1/16] was tested, and the MIC (P. aeruginosa ATCC 27853) was ≤ 1 µg/mL and the MIC (E. coli ATCC 25922) was 1 to 16 µg/mL (≈ 1.35 to 21.6 µM).

For `NC[C@@H]1O[C@H](O[C@H]2[C@@H](O)[C@H](O[C@@H]3[C@@H](O)[C@H](NC(=O)[C@]4(O)C[C@H](N)C4)C[C@H](N)[C@H]3O[C@H]3O[C@H](CNCCO)[C@@H](O)C[C@H]3N)O[C@@H]2CO)[C@H](N)[C@@H](O)[C@@H]1O` [2/9], the MIC (P. aeruginosa ATCC 27853) was ≤ 1 µg/mL and the MIC (E. coli ATCC 25922) was 1 to 16 µg/mL (≈ 1.32 to 21.2 µM).
